Each block holds one compound with its values, some of them ahead of it.
Assays:
[1] = system: T1, AcCR (carbonyl reductase); assay: spectrophotometric initial rate at […] nm; Hill fit; assay type: biochemical, Acetobacter sp. CCTCC M209061; details: NADH-linked reduction (NADH fixed 1 mM), pH 5.0, 25°C; sigmoidal, cooperative
T1 construct: native purification from Acetobacter cells (ammonium sulfate, DEAE-Sepharose, Native-PAGE); homotetramer 104 kDa, subunit 27 kDa

[2] = system: T1, AcCR (carbonyl reductase); assay: spectrophotometric initial rate at […] nm; assay type: biochemical, Acetobacter sp. CCTCC M209061
[3] = molecular target: carbonyl reductase from Acetobacter sp. CCTCC M209061 (AcCR) (Acetobacter sp. CCTCC M209061); assay: SEC; gel permeation on Superdex G-200, 50 mM phosphate buffer pH 7.0 with 0.15 M NaCl, 0.2 ml/min, calibrated with mass markers; apparent native mass (104 kDa) compared with the subunit mass by SDS-PAGE (27 kDa)
[4] = oxidation of isopropanol (fixed 110 mM), pH 8.0, 35°C

Km ([2]; NAD+-linked oxidation (NAD+ fixed 5 mM), pH 8.0, 35°C): 48300 ± 986 µM
Compound: CC(C)O [isopropanol]

stoichiometry N [3]: 4
Compound: carbonyl reductase from Acetobacter sp. CCTCC M209061 (AcCR) (enzyme)

Second part, the compound before the results:

Compound: CC(=O)c1ccc(Cl)cc1 [4′-chloroacetophenone]
Km [1]: 4130 ± 157 µM
Km ([2]; NADPH-linked reduction (NADPH fixed 0.1 mM), pH 7.5, 25°C): 2960 ± 87 µM

Compound: NC(=O)c1ccc[n+]([C@@H]2O[C@H](COP(=O)(O)OP(=O)(O)OC[C@H]3O[C@@H](n4cnc5c(N)ncnc54)[C@H](O)[C@@H]3O)[C@@H](O)[C@H]2O)c1 [NAD^+]
Km [2, 4]: 1330 ± 45 µM

Compound: NC(=O)C1=CN([C@@H]2O[C@H](COP(=O)(O)OP(=O)(O)OC[C@H]3O[C@@H](n4cnc5c(N)ncnc54)[C@H](O)[C@@H]3O)[C@@H](O)[C@H]2O)C=CC1 [NADH]
Km ([2]; reduction of 4′-chloroacetophenone (fixed 5 mM), pH 5.0, 25°C): 660 ± 21 µM

Compound: NC(=O)C1=CN([C@@H]2O[C@H](COP(=O)(O)OP(=O)(O)OC[C@H]3O[C@@H](n4cnc5c(N)ncnc54)[C@H](OP(=O)(O)O)[C@@H]3O)[C@@H](O)[C@H]2O)C=CC1 [NADPH]
Km ([2]; reduction of 4′-chloroacetophenone (fixed 5 mM), pH 7.5, 25°C): 26 ± 1 µM

Compound: NC(=O)c1ccc[n+]([C@@H]2O[C@H](COP(=O)(O)OP(=O)(O)OC[C@H]3O[C@@H](n4cnc5c(N)ncnc54)[C@H](OP(=O)(O)O)[C@@H]3O)[C@@H](O)[C@H]2O)c1 [NADP^+]
Km [2, 4]: 1120 ± 35 µM

From article PMC3989197, “A Novel Carbonyl Reductase with Anti-Prelog Stereospecificity from Acetobacter sp. CCTCC M209061: Purification and Characterization” (PLoS ONE, 2014)
